From patent publication US20260335295A1, “PHARMACEUTICAL COMPOSITION COMPRISING HTRA ACTIVATOR AS ACTIVE INGREDIENT FOR PREVENTING OR TREATING DEGENERATIVE DISEASES, AND METHOD FOR SCREENING HTRA ACTIVITY MODULATOR” (THE ASAN FOUNDATION, priority 2023, published 2026)

Key:
[1] = target: T1, HTRA1 (Homo sapiens, UniProt Q92743); assay: HTRA1 activation in human blood samples; settings: no method given
[2] = tested on: ARPE-19 retinal pigment epithelial cells; assay: Microvilli formation in three-dimensional long-term culture macular degeneration cell model; type: cell-based; settings: ARPE-19, 4.5 months culture; FIGS. 9G-I
Text: (§1) In order to verify the preventive or therapeutic effect of compound E09 on age-related macular degeneration (AMD) under conditions similar to an in vivo environment, a macular degeneration cell model using a three-dimensional (3D) long-term culture system was established.
(§2) The model was designed to induce apical-basal polarization of ARPE-19 cells and to reproduce the structural and functional differentiation characteristics of retinal pigment epithelium (RPE), as well as pathological drusen accumulation patterns, through nicotinamide-based long-term culture.
(§3) Specifically, ARPE-19 retinal pigment epithelial cells were seeded at a density of 1.66× 10^5 cells/cm^2 and cultured for two weeks in a medium containing nicotinamide. Thereafter, the cells were re-seeded onto laminin-coated Transwell inserts.
(§4) Subsequently, the medium was replaced every 2-3 days with a medium containing E09 or an HtrA1 inhibitor, and the cells were differentiated for 4.5 months (untreated control group (ctrl), E09-treated group, and HtrA1 inhibitor-treated group).

[3] = tested on: gene sets (transcriptome); assay: Transcriptome analysis (GSEA) in a pathological model of macular degeneration (AMD); settings: vs control group, FIG. 12 upper left
Description: The collected transcriptome data were analyzed at the gene set level using Gene Set Enrichment Analysis (GSEA).
FIG. 12 is a graph showing the results of GSEA (Gene Set Enrichment Analysis) performed after transcriptome analysis following treatment with Compound E09 or an HTRA1 inhibitor in a pathological model of macular degeneration (AMD).

[4] = target: T1, HTRA1; assay: HTRA1 enzyme activity on addition of casein, PDZ-opt (GQYYFV) or E09; type: biochemical; settings: 10 μM E09 vs 2 μg β-casein or PDZ-opt; 15 minutes at room temperature, measured at 37 °C 3 hours; FIG. 5
Description: HTRA activity was measured utilizing E09 and the HTRA activity-based probes synthesized by the method of Example 4.1. Changes in HTRA activity w ere measured for cases in which casein, known as a substrate of an HTRA enzyme, or PDZ-opt (GQYYFV), known as a peptide that activates an HTRA enzyme, was added and a case in which E09 was added.
Specifically, 2 μg of β-casein or PDZ-opt (GQYYFV) or 10 μM of E09 was added to an HTRA1 enzyme by the method of Example 1, the mixture was allowed to stand at room temperature for 15 minutes, and then HTRA1 activity was measured at 37 °C for 3 hours in the same manner as in Example 1, and the results are shown in FIG. 5.

[5] = tested on: ARPE-19 retinal pigment epithelial cells; assay: Cobblestone structure by clusterin and ZO-1 staining in NaIO3-induced dry macular degeneration cell model; type: cell-based; settings: pretreated 24 hours, co-treated with NaIO3 12 hours
Description: (§5) In order to confirm the preventive or therapeutic effect of compound E09 on age-related macular degeneration (AMD), a dry age-related macular degeneration (AMD)-like cell model induced by treatment with NaIO3 was established.
as §3
(§6) After culture for one month in a medium containing nicotinamide, the cells were treated with NaIO3 for 12 hours to induce cell injury (NaIO3-alone treatment group), wherein NaIO3 is commonly used for inducing dry age-related macular degeneration (AMD). Structural changes in the cells were then evaluated by analyzing clusterin and ZO-1. E09 and the HtrA1 inhibitor were dissolved in dimethyl sulfoxide (DMSO) and used for the experiments.
(§7) In order to evaluate the effect of E09 on NaIO3-induced cell injury, E09 was pretreated 24 hours prior to NaIO3 treatment and subsequently co-treated with NaIO3 for 12 hours (E09-treated group).
In addition, under the same conditions, NaIO3 and an HtrA1 inhibitor were administered, and a TUNEL assay was performed to evaluate cytotoxicity.

[6] = tested on: NaIO3-induced mouse macular degeneration model (retina); assay: NaIO3-induced mouse macular degeneration model, H&E staining and thickness of retina; type: in vivo, C57BL/GJ mice; settings: intravitreal injection on Day −1, NaIO3 IV day 0, eyes five days after NaIO3
Description: Specifically, C57BL/GJ mice (6 weeks old) were acclimated for one week, and on experimental day 0, NaIO3 was administered via intravenous injection (IV) to induce retinal injury. To evaluate drug efficacy, E09 or an HtrA1 inhibitor was pre-administered by intravitreal injection one day prior to NaIO3 administration (Day −1).
Five days after administration of NaIO3, the eyes were enucleated, and the tissues. were fixed and sectioned. Hematoxylin & Eosin (H&E) staining was then performed to observe morphological changes in the retina.
In particular, the structural preservation status and thickness changes of the retinal pigment epithelium (RPE) layer, photoreceptor outer segments (POS), and the outer nuclear layer (ONL) were primarily analyzed.

[7] = tested on: ARPE-19 retinal pigment epithelial cells; assay: Cell death by TUNEL assay in NaIO3-induced dry macular degeneration cell model; type: cell-based; settings: pretreated 24 hours, co-treated with NaIO3 12 hours, FIG. 7E-H
Description: as §5, §3, §6, §7
In addition, under the same conditions, NaIO3 and an HtrA1 inhibitor were administered, and a TUNEL assay was performed to evaluate cytotoxicity. […]

[8] = tested on: ARPE-19 retinal pigment epithelial cells; assay: Cell barrier structure by ZO-1 and clusterin staining in three-dimensional long-term culture macular degeneration cell model; type: cell-based; settings: ARPE-19, 4.5 months culture; FIGS. 9D-F
Text: as §1, §2, §3, §4

[9] = target: T1, HTRA1; assay: HTRA1 activity in HeLa cells with HTRA1 activity-based probe DS-1-94, fluorescence microscopy; type: cell-based; settings: E09 10 μM, DS-1-94 5 μM, 37 °C, 1 hour, FIG. 4
Description: To confirm whether HTRA1 activity increases even when cells are treated with E09, HTRA1 activity according to the presence or absence of E09 was identified by treating Hela cells, which are human adenocarcinoma cells, with an HTRA1 activity-based probe (DS-1-94, final concentration of 5 μM) and E09 (HTRA activator, final concentration of 10 μM).
Specifically, the cells treated with the HIRAI activity-based probe (DS-1-94) and E09 (HTRA activator) were maintained in a 37 °C incubator for 1 hour.

[10] = tested on: ARPE-19 retinal pigment epithelial cells; assay: Holotomography analysis in three-dimensional long-term culture macular degeneration cell model; type: cell-based; settings: ARPE-19, 4.5 months culture; FIGS. 9J-L
Text: as §1, §2, §3, §4

[11] = target: T1, HTRA1; assay: HTRA1 activity assay with fluorogenic substrate H2-Opt (high-throughput screening); type: biochemical
Description: (§8) HTRA activity was identified through high-throughput screening using H2-Opt, a commercially available fluorogenic substrate.
(§9) Specifically, purified recombinant HTRA1 protein (50 ng) and a compound (final concentration of 10 μM) were added to 80 μL of an assay buffer in each well of a 96-well plate and were allowed to stand at room temperature for 30 minutes. Immediately after 20 μL of an H2-OPT solution (final concentration of 6.25 μM) was added thereto and mixed, fluorescence signals generated therefrom were measured using an MS microplate reader device manufactured by Molecular Devices. Upon measurement of the fluorescence signals in kinetic mode, excitation and emission were set to 328 nm and 393 nm, respectively, and changes in the fluorescence signals were measured at 37 °C for 3 hours at intervals of 30 seconds.
(§10) Specifically, different concentrations of E09 (0.01, 0.1, 1, 10, and 100 (M) w ere added to purified recombinant HTRA1 and HTRA2, and activities of HTRA1 and HTRA2 were measured in the same manner as the high-throughput screening of Example 1. Fluorescence signals at the end of measurement (3 hours) were measured for each concentration. Graphs obtained by measuring the fluorescence signals of HTRA1 and HTRA2 are shown in FIGS. 2 and 3.

[12] = target: T2, HTRA2 (Homo sapiens, UniProt O43464); assay: HTRA2 activity assay with fluorogenic substrate H2-Opt; type: biochemical
T2 sequence (O43464 134-458): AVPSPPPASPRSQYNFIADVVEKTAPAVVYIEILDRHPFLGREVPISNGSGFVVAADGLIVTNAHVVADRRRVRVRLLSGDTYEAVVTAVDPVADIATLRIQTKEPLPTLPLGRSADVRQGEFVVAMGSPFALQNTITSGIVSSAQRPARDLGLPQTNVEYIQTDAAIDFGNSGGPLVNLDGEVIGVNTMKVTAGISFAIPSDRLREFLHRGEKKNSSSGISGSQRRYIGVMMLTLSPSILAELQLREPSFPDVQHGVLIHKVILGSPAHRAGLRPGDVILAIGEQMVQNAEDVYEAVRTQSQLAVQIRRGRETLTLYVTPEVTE
Description: as §8, §9, §10

[13] = tested on: ARPE-19 retinal pigment epithelial cells; assay: Immunostaining of ApoE and Cathepsin D in three-dimensional long-term culture macular degeneration cell model; type: cell-based; settings: ARPE-19, 4.5 months culture; vs control group; FIGS. 9A-C
Text: as §1, §2, §3, §4

T1 sequence (Q92743 23-480): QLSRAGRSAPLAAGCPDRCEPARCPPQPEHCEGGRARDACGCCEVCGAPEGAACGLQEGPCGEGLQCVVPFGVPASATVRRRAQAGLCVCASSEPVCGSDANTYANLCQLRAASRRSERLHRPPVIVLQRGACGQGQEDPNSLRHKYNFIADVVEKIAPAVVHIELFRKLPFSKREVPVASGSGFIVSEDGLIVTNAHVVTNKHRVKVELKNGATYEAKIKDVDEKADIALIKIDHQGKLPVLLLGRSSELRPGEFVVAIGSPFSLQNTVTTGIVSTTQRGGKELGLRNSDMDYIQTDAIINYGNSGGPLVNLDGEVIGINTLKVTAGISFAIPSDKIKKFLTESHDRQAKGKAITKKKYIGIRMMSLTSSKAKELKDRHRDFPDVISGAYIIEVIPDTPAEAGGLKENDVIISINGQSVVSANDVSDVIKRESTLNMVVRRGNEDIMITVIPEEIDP

COC(=O)C1CCC(NC(=O)c2ccc(-c3nc(C)cs3)cc2)(C(=O)OC)CC1 (centres unmarked) [Compound E09, dimethyl 1-(4-(4-methylthiazol-2-yl)benzamido)cyclohexane-1,4-dicarboxylate]
HTRA1 activation in human blood samples [1]: also activates HTRA1 in human blood samples
microvilli formation [2]: increased microvilli development
expression of gene sets associated with retinal vascular lesions (retinal telangiectasia and vascular tortuosity) [3]: overall tendency toward decreased expression
HTRA1 activation compared with casein or PDZ-opt (GQYYFV) [4]: activates the HTRA1 enzyme at room temperature far more significantly than casein or PDZ-opt (GQYYFV)
structural damage induced by NaIO3 / cobblestone structure ([5]; FIG. 7A-D): structural damage induced by NaIO3 was significantly suppressed
monolayer structure of the cells ([5]; FIG. 7C): the monolayer structure of the cells was preserved
tissue continuity (H&E) ([6]; FIG. 11A): tissue continuity was well maintained
ONL thickness ([6]; FIG. 11B): significantly suppressed NaIO3-induced thinning and protected retinal structure
separation of the retinal (RPE-POS) layers (H&E) ([6]; vs DMSO control, FIG. 11A): separation of the retinal layers was markedly suppressed
NaIO3-induced cell death (TUNEL assay) [7]: NaIO3-induced cell death was significantly suppressed
ZO-1 and clusterin staining pattern (epithelial barrier) [8]: maintained a continuous and regular staining pattern along the cell boundaries, indicating formation of a robust epithelial barrier structure
fluorescence signal of HTRA1 probe (HTRA1 activity) [9]: fluorescence signal markedly increased
cytoskeletal structure (holotomography) [10]: a stable cytoskeletal structure was maintained
dose dependency of HTRA1 activity ([11]; 0.01, 0.1, 1, 10, and 100 (M) as printed, signal at 3 hours, FIG. 2): activates HTRA1 and HTRA2 in a dose-dependent manner
activation ability in HTRA1 (both HTRA1 and HTRA2) ([11]; Example 1, in words): excellent activation ability in both HTRA1 and HTRA2
HTRA1 activation ([11]; screening, final concentration of 10 μM, H2-OPT 6.25 μM, 37 °C, 3 hours, FIG. 1): significantly activate HTRA1
dose dependency of HTRA2 activity ([12]; 0.01, 0.1, 1, 10, and 100 (M) as printed, signal at 3 hours, FIG. 3): activates HTRA1 and HTRA2 in a dose-dependent manner
activation ability in HTRA2 (both HTRA1 and HTRA2) ([12]; Example 1, in words): excellent activation ability in both HTRA1 and HTRA2
expression / accumulation of ApoE (drusen marker) [13]: expression levels of these markers tended to decrease compared with the control group
expression / accumulation of cathepsin D (drusen marker) [13]: expression levels of these markers tended to decrease compared with the control group
